Results as given in ChEMBL document CHEMBL4689842, “EUbOPEN Chemogenomics Library wave 1” (2021).

Tests used:
Type in all cases: toxicity, cell-based
U2OS = assay: Incucyte cell viability with U2OS; conditions: human, 10 µM, compound concentration 10 uM
HEK-293T = assay: Incucyte cell viability with HEK293T; conditions: human, 10 µM, compound concentration 10 uM
Fibroblast = assay: Incucyte cell viability with human fibroblast; conditions: 10 µM, compound concentration 10 uM
[1] = 0 h, replicate number 1, timepoint 0 hours
[2] = 6 h, replicate number 1, timepoint 6 hours
[3] = 6 h, replicate number 2, timepoint 6 hours
[4] = 12 h, replicate number 1, timepoint 12 hours
[5] = 12 h, replicate number 2, timepoint 12 hours
[6] = 18 h, replicate number 1, timepoint 18 hours
[7] = 24 h, replicate number 1, timepoint 24 hours
[8] = 0 h, replicate number 2, timepoint 0 hours
[9] = 24 h, replicate number 2, timepoint 24 hours
[10] = 18 h, replicate number 2, timepoint 18 hours
Further: filed as whole numbers so only -1 and 0 and 1 occur.

Structure (SMILES) | Growth Rate (U2OS; [1]) | Growth Rate (U2OS; [3]) | Growth Rate (U2OS; [4]) | Growth Rate (U2OS; [6]) | Growth Rate (U2OS; [7]) | Growth Rate (HEK-293T; [1]) | Growth Rate (HEK-293T; [8]) | Growth Rate (HEK-293T; [5]) | Growth Rate (HEK-293T; [6]) | Growth Rate (HEK-293T; [7]) | Growth Rate (Fibroblast; [1]) | Growth Rate (Fibroblast; [2]) | Growth Rate (Fibroblast; [4]) | Growth Rate (Fibroblast; [6]) | Growth Rate (Fibroblast; [7]) | Growth Rate (Fibroblast; [9]) | Growth Rate (U2OS; [10]) | Growth Rate (HEK-293T; [2]) | Growth Rate (HEK-293T; [4]) | Growth Rate (Fibroblast; [3]) | also measured
Cc1cnc(-c2cc(Cl)ccc2F)cc1-n1c(=O)n(CC(N)=O)c2ccccc21 [Al11] | 0 | 0 | 1 | 1 | 1 | 0 | 1 | 1 | 1 | 1 | 0 | 1 | 1 | 0 | 1 | 0 |  |  |  |  | Growth Rate (U2OS; [2]): 1; Growth Rate (U2OS; [5]): 0; Growth Rate (HEK-293T; [3]): 0
Cc1noc([C@H]2C[C@@H](c3ccc(C(F)(F)F)cc3)CN(C(=O)N3CCS(=O)(=O)C3)C2)n1 [BAY-448] | 0 | 1 | 1 | 0 | 0 | 1 | 0 | 1 | 0 | 0 | 0 | 1 | 1 | 0 | 0 | 1 | 1 | 0 | 0 | 0 | Growth Rate (U2OS; [9]): 1; Growth Rate (HEK-293T; [3]): 1
O=C(NCc1ncc(C(F)(F)F)cc1Cl)c1ccc2c(c1)C1(CCS(=O)(=O)CC1)[C@@H](C1CC1)N2S(=O)(=O)c1ccc(F)cc1 [BAY-786] | 0 | 0 | 1 | 1 | 0 | 0 |  | 1 | 0 | 0 | 0 | 1 | 1 | 1 | 1 |  | 0 | 1 | 0 |  | Growth Rate (HEK-293T; [10]): 1; Growth Rate (HEK-293T; [9]): 1; Growth Rate (Fibroblast; [8]): 1
O=C(Nc1ccc(Oc2ccc(F)cc2)cc1)N1CCc2ncccc2[C@H]1c1ccc(F)cc1 [BAY-897] | 0 |  | 1 | 1 | 1 | 0 |  |  | 0 | 0 | 0 | 1 | 1 | 1 | 1 |  |  | 0 | 0 | 0 | 
C[C@H](NC(=O)c1cnc2n1[C@](C)(Cc1ccc(C#N)cc1)C(=O)N2c1cc(Cl)c(F)c(Cl)c1)C(=O)NC1(c2ccccn2)CC1 [BI 1950] | 0 | 1 | 1 | 1 | 1 | 1 | 0 |  | 0 | 0 | 0 |  |  | 1 | 1 | 0 |  | 0 | 0 | 0 | Growth Rate (Fibroblast; [8]): 1; Growth Rate (Fibroblast; [5]): 0; Growth Rate (Fibroblast; [10]): 0
CCOC(=O)c1cc2cc(-c3cc(C(=O)NCc4ccc(C(=O)O)cc4)nn3C)ccc2[nH]1 [BI 4394] |  |  | 1 | 0 | 1 | 0 |  |  | 0 | 0 | 1 | 0 | 1 | 1 | 1 |  | 1 |  | 1 |  | Growth Rate (U2OS; [8]): 0; Growth Rate (U2OS; [2]): 1; Growth Rate (HEK-293T; [10]): 1; Growth Rate (Fibroblast; [8]): 0; Growth Rate (Fibroblast; [5]): 0
CN(C)C(=O)Cn1cc(-c2nc([C@@](C)(c3ccc(-c4cnc(N)nc4)cc3)C3CC3)no2)cn1 [BI 665915] | 0 | 1 | 1 | 0 | 1 | 0 | 1 | 1 | 0 | 0 | 1 | 1 | 1 | 0 | 0 | 1 |  | 0 | 0 |  | Growth Rate (U2OS; [2]): 0; Growth Rate (U2OS; [9]): 0; Growth Rate (HEK-293T; [10]): 1; Growth Rate (HEK-293T; [9]): 1; Growth Rate (Fibroblast; [10]): 1
O=S1(=O)c2cccc3cccc(c23)N1CCCN1CCN(c2ccc(F)cc2)CC1 [FANANSERIN] |  |  | 1 | 1 | 1 |  | 0 |  | 0 | 0 | 0 | 1 | 0 | 1 | 1 | 0 |  | 0 | 0 | 0 | Growth Rate (U2OS; [8]): 0; Growth Rate (Fibroblast; [10]): 0
COC(=O)/C=C/c1cccc(N(Cc2ccc(-c3ccc(N(C)C)cc3)cc2)C(=O)C2CCCCC2)c1 [FEXARAMINE] |  | 0 | 1 | 1 | 0 | 0 |  |  | 0 | 0 | 0 | 0 | 1 | 1 | 1 | 0 | 0 | 1 | 0 |  | Growth Rate (U2OS; [8]): 0; Growth Rate (U2OS; [5]): 0; Growth Rate (HEK-293T; [3]): 0; Growth Rate (Fibroblast; [5]): 0; Growth Rate (Fibroblast; [10]): 0
COc1cc2ncnc(Nc3ccc(F)c(Cl)c3)c2cc1OCCCN1CCOCC1 [GEFITINIB] | 0 |  | 0 | 0 | 0 | 0 |  |  | 0 | 0 | 0 |  | 0 | 0 | 0 |  | 1 | 0 | 0 | 1 | Growth Rate (U2OS; [2]): 0; Growth Rate (U2OS; [5]): 1; Growth Rate (U2OS; [9]): 1
C[C@]1(C(=O)N(CCCC(=O)O)Cc2cccc(Cl)c2)CCN1C(=O)c1csc2ccccc12 [GLPG-0974] | 0 | 1 | 1 | 1 | 1 | 1 | 0 | 0 | 1 | 1 | 0 | 0 | 0 | 1 | 1 |  |  | 1 | 1 |  | Growth Rate (HEK-293T; [3]): 0; Growth Rate (HEK-293T; [10]): 0; Growth Rate (HEK-293T; [9]): 0; Growth Rate (Fibroblast; [8]): 1
